From ChEMBL document CHEMBL4765332, “A multi-scale systems pharmacology approach uncovers the anti-cancer molecular mechanism of Ixabepilone” (Eur J Med Chem, 2020)
Activity calls are given as the source filed them. The calls are words filed in the database; no cut-off is given here.

Legend:
[1] = target: T1, Apoptosis regulator Bcl-2 (Homo sapiens, UniProt P10415); test: Binding affinity to human recombinant Bcl-2 expressed in Escherichia coli by Surface plasmon resonance assay
[2] = target: T1, Apoptosis regulator Bcl-2; test: Induction of Bcl-2 phosphorylation-mediated protein degradation in human BT549 cells assessed as decrease in Bcl-2 expression measured after 48 hrs by western blot analysis; assay type: cell-based; conditions: BT-549, dose 0.05-0.4 µM
[3] = target: T1, Apoptosis regulator Bcl-2; test: Induction of Bcl-2 phosphorylation-mediated protein degradation in human MDA-MB-231 cells assessed as decrease in Bcl-2 expression at 0.1 uM by western blot analysis; assay type: cell-based; conditions: time 12-48 hrs, TDE = time-dependent effect
[4] = target: T1, Apoptosis regulator Bcl-2; test: Induction of Bcl-2 phosphorylation-mediated protein degradation in human BT549 cells assessed as decrease in Bcl-2 expression at 0.1 uM by western blot analysis; assay type: cell-based; conditions: BT-549, time 12-48 hrs, TDE = time-dependent effect
[5] = target: T1, Apoptosis regulator Bcl-2; test: Induction of Bcl-2 phosphorylation-mediated protein degradation in human MDA-MB-231 cells assessed as disruption of Bcl2/Beclin1 interaction at 0.2 uM measured after 48 hrs by co-immunoprecipitation analysis; assay type: cell-based
MDA-MB-231 [6] = test: Induction of autophagy in human MDA-MB-231 cells assessed as increase in LC3-II level at 0.1 uM by Western blot analysis; assay type: functional, cell-based; conditions: time 12-48 hrs, TDE = time-dependent effect
BT-549 [7] = test: Induction of autophagy in human BT-549 cells assessed as increase in LC3-II level at 0.1 uM by Western blot analysis; assay type: functional, cell-based; conditions: time 12-48 hrs, TDE = time-dependent effect
BT-549 [8] = test: Induction of autophagy in human BT-549 cells transfected with GFP-LC3 assessed as increase in GFP-LC3 puncta formation after 12 hrs by fluorescence microscopic analysis; assay type: functional, cell-based
BT-549 [9] = test: Induction of autophagy in human BT-549 cells assessed increase in LC3-II level at 0.1 to 0.2 uM preincubated with 20 uM autophagosome-lysosome fusion inhibitor, chloroquine for 1 hr followed by incubation with compound for 48 hrs by western blot analysis; assay type: functional, cell-based; conditions: dose 0.1-0.2 µM
BT-549 [10] = test: Induction of autophagy in human BT-549 cells expressing mRFP-EGFP-LC3B assessed as accumulation of yellow fluorescence signals measured after 12 hrs by fluorescence microscopic analysis; assay type: functional, cell-based
BT-549 [11] = test: Cytotoxicity against human BT-549 cells at 0.1 to 1.6 uM measured after 48 hrs in presence of 20 uM autophagy inhibitor, chloroquine by CCK8 assay; assay type: functional, cell-based; conditions: dose 0.1-1.6 µM
MCF7 = test: Cytotoxicity against human MCF-7 cells at 0.1 to 1.6 uM measured after 48 hrs in presence of 20 uM autophagy inhibitor, chloroquine by CCK8 assay; assay type: functional, cell-based; conditions: dose 0.1-1.6 µM
MDA-MB-231 [12] = test: Induction of autophagy in human MDA-MB-231 cells transfected with Beclin1 siRNA assessed as LC3-II level at 0.1 uM by western blot analysis; assay type: functional, cell-based
MDA-MB-231 [13] = test: Cytotoxicity against human MDA-MB-231 cells transfected with Beclin1 siRNA at 0.1 to 1.6 uM measured after 48 hrs by CCK8 assay; assay type: functional, cell-based; conditions: dose 0.1-1.6 µM
MDA-MB-231 [14] = test: Cytotoxicity against human MDA-MB-231 cells transfected with non-targeting siRNA at 0.1 to 1.6 uM measured after 48 hrs by CCK8 assay; assay type: functional, cell-based; conditions: dose 0.1-1.6 µM
MDA-MB-231 [15] = test: Induction of apoptosis in human MDA-MB-231 cells assessed as increase in cleaved PARP level pretreated with 20 uM autophagy inhibitor, CQ for 1 hr followed by incubation with drug for 48 hrs by western blot analysis; assay type: functional, cell-based
BT-549 [16] = test: Induction of apoptosis in human BT-549 cells assessed as early apoptotic cells incubated for 48 hrs by AnnexinV-FITC and propidium iodide staining based flow cytometry analysis(reference value: 0.609%); assay type: functional
U-251 [17] = test: Cytotoxicity against human U251 cells at 0.1 to 1.6 uM measured after 48 hrs in presence of 20 uM autophagy inhibitor, chloroquine by CCK8 assay; assay type: functional, cell-based; conditions: dose 0.1-1.6 µM
MDA-MB-231 [18] = test: Antitumor activity against human MDA-MB-231 cells xenografted in BALB/c mouse assessed as tumor growth inhibition at 3 mg/kg, ip administered every other day measured every 3 days by vernier caliper analysis; assay type: functional, organism-based
[19] = target: T1, Apoptosis regulator Bcl-2; test: Induction of Bcl-2 phosphorylation-mediated protein degradation in human MCF7 cells assessed as decrease in Bcl-2 expression at 0.1 to 0.2 uM pretreated with proteasome inhibitor, MG132 for 2 hrs followed by incubation with compound for 48 hrs by western blot analysis; assay type: cell-based; conditions: dose 0.1-0.2 µM
[20] = target: T1, Apoptosis regulator Bcl-2; test: Upregulation of Bcl-2 phosphorylation at Ser70 residue in human MDA-MB-231 cells at 0.05 to 0.4 microM incubated for 48 hrs by western blot analysis; assay type: cell-based; conditions: dose 0.05-0.4 µM
[21] = target: T1, Apoptosis regulator Bcl-2; test: Upregulation of Bcl-2 phosphorylation at Ser70 residue in human BT549 cells at 0.1 microM incubated for 12 to 36 hrs by western blot analysis; assay type: cell-based; conditions: BT-549, time 12-36 hrs
MDA-MB-231 [22] = test: Effect on Beclin1 expression in human MDA-MB-231 cells at 0.2 uM measured after 48 hrs by western blot analysis; assay type: functional, cell-based
BT-549 [23] = test: Induction of apoptosis in human BT-549 cells assessed as viable cells incubated for 48 hrs in presence of 20 uM autophagy inhibitor, CQ by AnnexinV-FITC and propidium iodide staining based flow cytometry analysis(reference value: 94.6%); assay type: functional
BT-549 [24] = test: Induction of apoptosis in human BT-549 cells assessed as early apoptotic cells incubated for 48 hrs in presence of 20 uM autophagy inhibitor, CQ by AnnexinV-FITC and propidium iodide staining based flow cytometry analysis(reference value: 1.94%); assay type: functional
BT-549 [25] = test: Induction of apoptosis in human BT-549 cells assessed as necrotic cells incubated for 48 hrs in presence of 20 uM autophagy inhibitor, CQ by AnnexinV-FITC and propidium iodide staining based flow cytometry analysis(reference value: 0.86%); assay type: functional
MDA-MB-231 [26] = test: Antitumor activity against human MDA-MB-231 cells xenografted in BALB/c mouse assessed as tumor growth inhibition at 3 mg/kg, ip administered with compound every other day and with 10 mg/kg, ip CQ every day and measured every 3 days by vernier caliper analysis; assay type: functional, organism-based
HepG2 [27] = test: Induction of autophagy in human HepG2 cells assessed as increase in LC3-II expression at 0.4 to 6.4 uM measured after 48 hrs by western blot analysis; assay type: functional, cell-based; conditions: dose 0.4-6.4 µM
HepG2 [28] = test: Induction of autophagy in human HepG2 cells assessed as increase in LC3-II expression at 0.4 uM measured after 12 to 48 hrs by western blot analysis; assay type: functional, cell-based; conditions: time 12-48 hrs
U-251 [29] = test: Induction of autophagy in human U251 cells assessed as increase in LC3-II expression at 0.4 to 6.4 uM measured after 48 hrs by western blot analysis; assay type: functional, cell-based; conditions: dose 0.4-6.4 µM
U-251 [30] = test: Induction of autophagy in human U251 cells assessed as increase in LC3-II expression at 0.4 uM measured after 12 to 48 hrs by western blot analysis; assay type: functional, cell-based; conditions: time 12-48 hrs

T1 sequence (P10415 whole entry): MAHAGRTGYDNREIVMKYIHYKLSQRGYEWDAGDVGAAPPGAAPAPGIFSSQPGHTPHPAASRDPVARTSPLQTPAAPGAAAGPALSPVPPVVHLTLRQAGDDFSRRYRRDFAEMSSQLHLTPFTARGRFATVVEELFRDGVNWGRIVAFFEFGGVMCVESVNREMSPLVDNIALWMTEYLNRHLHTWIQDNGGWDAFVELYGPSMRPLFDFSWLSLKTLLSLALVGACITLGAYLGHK

Compound: C/C(=C\c1csc(C)n1)[C@@H]1C[C@@H]2O[C@]2(C)CCC[C@H](C)[C@H](O)[C@@H](C)C(=O)C(C)(C)[C@@H](O)CC(=O)N1 [IXABEPILONE]
- Kd [1]: 337 nM
- Activity [2]: Dose-dependent effect
- Activity [3]: Tde
- Activity [4]: Tde
- Activity [5]: Active
- Activity (MDA-MB-231 [6]): Tde
- Activity (BT-549 [7]): Tde
- Activity (BT-549 [8]): Active
- Activity (BT-549 [9]): Active
- Activity (BT-549 [10]): Active
- Activity (BT-549 [11]): Active
- Activity (MCF7): Active
- Activity (MDA-MB-231 [12]): inactive
- Activity (MDA-MB-231 [13]): Active
- Activity (MDA-MB-231 [14]): Active
- Activity (MDA-MB-231 [15]): Active
- Activity (BT-549 [16]): 2.17%
- Activity (U-251 [17]): Active
- Activity (MDA-MB-231 [18]): Active
- Activity [19]: inactive
- Activity [20]: Active
- Activity [21]: Active
- Activity (MDA-MB-231 [22]): inactive
- Activity (BT-549 [23]): 74.3%
- Activity (BT-549 [24]): 4.2%
- Activity (BT-549 [25]): 3.53%
- Activity (MDA-MB-231 [26]): Active
- Activity (HepG2 [27]): Active
- Activity (HepG2 [28]): Active
- Activity (U-251 [29]): Active
- Activity (U-251 [30]): Active
